Values of other authors, collected in US20250208121A1, “MAMMALIAN PER- AND POLYFLUORINATED-ALKYL COMPOUND (PFAS) BINDING PROTEINS AND USES THEREOF” (Allonnia, LLC, priority 2023, published 2025).

Details: in humans; previous research

O=C(O)C(F)(F)C(F)(F)C(F)(F)C(F)(F)C(F)(F)C(F)(F)C(F)(F)F [PFOA, perfluorooctanoic acid]
half-life: ~3.8 years

O=S(=O)(O)C(F)(F)C(F)(F)C(F)(F)C(F)(F)C(F)(F)C(F)(F)C(F)(F)C(F)(F)F [PFOS, perfluorooctanesulfonic acid]
half-life: approximately 5.4 years
